Test results: US8357774B2, “Polypeptide and process for producing the same” (National University Corporation Nara Institute of Science …, priority 2007, dated 2013)

Tested on: NIH3T3 cell
Assay: NIH3T3 cell adhesion on film
Assay type: cell-based
Conditions: seeded 10^4 cells/cm^2 in D-MEM, 5% CO2, 37° C., 1 hour, washed three times with PBS, counted at five positions
Protocol: A NIH3T3 cell suspended in D-MEM was added onto the resulting Gly-Arg-Gly-Asp-Ser-conjugated poly(Pro-Hyp-Gly) film at a ratio of 10^4 cells/cm^2, followed by allowing to stand in 5% CO2 at 37° C. for 1 hour. The non-adhered cell was washed out three times with PBS and the number of adhered cells was counted at five positions on the film.

Substance | number of adhered cells (average)
bovine collagen type I: Bovine collagen type I coated on a plastic dish, comparison surface | 6,000 cells/cm^2
poly(Pro-Hyp-Gly) | 2,000 cells/cm^2
